# From patent US12377104B1, “Methods for treating a fatty liver disease” (Madrigal Pharmaceuticals, Inc., priority 2024, dated 2025)
# Experiment: Resmetirom exposure parameters by dose, quartile and body weight
# Type: in vivo, human
# Method: Various body weight cutoffs for dosing were evaluated.
structure (smiles),measurement,setting,value
"CC(C)c1cc(Oc2c(Cl)cc(-n3nc(C#N)c(=O)[nH]c3=O)cc2Cl)n[nH]c1=O [Resmetirom, 2-(3,5-dichloro-4-((5-isopropyl-6-oxo-1,6-dihydropyridazin-3-yl)oxy)phenyl)-3,5-dioxo-2,3,4,5-tetrahydro-1,2,4-triazine-6-carbonitrile]","Cmin,ss Geometric Mean","80 mg, 80-<90 kg",20.7 ng/mL
same,"Cmin,ss Mean","80 mg, 80-<90 kg",55.9 ng/mL
same,"Cmin,ss Median","80 mg, 80-<90 kg",18.4 ng/mL
same,t1/2α Geometric Mean,"80 mg, 80-<90 kg",1.21 h
same,t1/2α Mean,"80 mg, 80-<90 kg",1.34 h
same,t1/2α Median,"80 mg, 80-<90 kg",1.24 h
same,t1/2β Geometric Mean,"80 mg, 80-<90 kg",5.15 h
same,t1/2β Mean,"80 mg, 80-<90 kg",6.04 h
same,t1/2β Median,"80 mg, 80-<90 kg",4.41 h
same,"Cmin,ss Geometric Mean","80 mg, 90-<100 kg",14.2 ng/mL
same,"Cmin,ss Mean","80 mg, 90-<100 kg",52.0 ng/mL
same,"Cmin,ss Median","80 mg, 90-<100 kg",12.0 ng/mL
same,t1/2α Geometric Mean,"80 mg, 90-<100 kg",1.10 h
same,t1/2α Mean,"80 mg, 90-<100 kg",1.21 h
same,t1/2α Median,"80 mg, 90-<100 kg",1.02 h
same,t1/2β Geometric Mean,"80 mg, 90-<100 kg",4.81 h
same,t1/2β Mean,"80 mg, 90-<100 kg",5.50 h
same,t1/2β Median,"80 mg, 90-<100 kg",4.29 h
same,"Cmin,ss Geometric Mean","80 mg, 100-<110 kg",13.2 ng/mL
same,"Cmin,ss Mean","80 mg, 100-<110 kg",37.3 ng/mL
same,"Cmin,ss Median","80 mg, 100-<110 kg",14.1 ng/mL
same,t1/2α Geometric Mean,"80 mg, 100-<110 kg",1.12 h
same,t1/2α Mean,"80 mg, 100-<110 kg",1.26 h
same,t1/2α Median,"80 mg, 100-<110 kg",1.12 h
same,t1/2β Geometric Mean,"80 mg, 100-<110 kg",4.99 h
same,t1/2β Mean,"80 mg, 100-<110 kg",5.86 h
same,t1/2β Median,"80 mg, 100-<110 kg",4.50 h
same,"Cmin,ss Geometric Mean","80 mg, <80 kg",26.7 ng/mL
same,"Cmin,ss Mean","80 mg, <80 kg",72.8 ng/mL
same,"Cmin,ss Median","80 mg, <80 kg",25.5 ng/mL
same,t1/2α Geometric Mean,"80 mg, <80 kg",1.13 h
same,t1/2α Mean,"80 mg, <80 kg",1.27 h
same,t1/2α Median,"80 mg, <80 kg",1.15 h
same,t1/2β Geometric Mean,"80 mg, <80 kg",5.03 h
same,t1/2β Mean,"80 mg, <80 kg",5.44 h
same,t1/2β Median,"80 mg, <80 kg",4.53 h
same,"Percentage of Cave,ss in quartile",80 mg; Q1: [20-155) ng/mL,31%
same,"Percentage of Cave,ss in quartile",80 mg; Q2: [155-219) ng/mL,31%
same,"Percentage of Cave,ss in quartile",80 mg; Q3: [219-321) ng/mL,22%
same,"Percentage of Cave,ss in quartile","80 mg, Q4: [321-1326] ng/mL",17%
same,"Cmin,ss Geometric Mean","80 mg, ≥110 kg",11.5 ng/mL
same,"Cmin,ss Mean","80 mg, ≥110 kg",26.0 ng/mL
same,"Cmin,ss Median","80 mg, ≥110 kg",9.77 ng/mL
same,t1/2α Geometric Mean,"80 mg, ≥110 kg",1.16 h
same,t1/2α Mean,"80 mg, ≥110 kg",1.30 h
same,t1/2α Median,"80 mg, ≥110 kg",1.11 h
same,t1/2β Geometric Mean,"80 mg, ≥110 kg",4.94 h
same,t1/2β Mean,"80 mg, ≥110 kg",5.30 h
same,t1/2β Median,"80 mg, ≥110 kg",4.45 h
same,"Cmin,ss Geometric Mean","100 mg, 80-<90 kg",32.0 ng/mL
same,"Cmin,ss Mean","100 mg, 80-<90 kg",100 ng/mL
same,"Cmin,ss Median","100 mg, 80-<90 kg",22.2 ng/mL
same,t1/2α Geometric Mean,"100 mg, 80-<90 kg",1.16 h
same,t1/2α Mean,"100 mg, 80-<90 kg",1.30 h
same,t1/2α Median,"100 mg, 80-<90 kg",1.08 h
same,t1/2β Geometric Mean,"100 mg, 80-<90 kg",5.58 h
same,t1/2β Mean,"100 mg, 80-<90 kg",7.13 h
same,t1/2β Median,"100 mg, 80-<90 kg",4.43 h
same,"Cmin,ss Geometric Mean","100 mg, 90-<100 kg",41.7 ng/mL
same,"Cmin,ss Mean","100 mg, 90-<100 kg",113 ng/mL
same,"Cmin,ss Median","100 mg, 90-<100 kg",51.0 ng/mL
same,t1/2α Geometric Mean,"100 mg, 90-<100 kg",1.39 h
same,t1/2α Mean,"100 mg, 90-<100 kg",1.54 h
same,t1/2α Median,"100 mg, 90-<100 kg",1.37 h
same,t1/2β Geometric Mean,"100 mg, 90-<100 kg",6.21 h
same,t1/2β Mean,"100 mg, 90-<100 kg",8.49 h
same,t1/2β Median,"100 mg, 90-<100 kg",5.29 h
same,"Cmin,ss Geometric Mean","100 mg, 100-<110 kg",26.5 ng/mL
same,"Cmin,ss Mean","100 mg, 100-<110 kg",65.4 ng/mL
same,"Cmin,ss Median","100 mg, 100-<110 kg",22.1 ng/mL
same,t1/2α Geometric Mean,"100 mg, 100-<110 kg",1.14 h
same,t1/2α Mean,"100 mg, 100-<110 kg",1.30 h
same,t1/2α Median,"100 mg, 100-<110 kg",1.34 h
same,t1/2β Geometric Mean,"100 mg, 100-<110 kg",5.55 h
same,t1/2β Mean,"100 mg, 100-<110 kg",7.08 h
same,t1/2β Median,"100 mg, 100-<110 kg",4.65 h
same,"Cmin,ss Geometric Mean","100 mg, <80 kg",31.4 ng/mL
same,"Cmin,ss Mean","100 mg, <80 kg",119 ng/mL
same,"Cmin,ss Median","100 mg, <80 kg",29.7 ng/mL
